Assay results: ChEMBL document CHEMBL1134885, “Synthesis and thrombolytic activity of pseudopeptides related to fibrinogen fragment” (2002)
Square brackets hold non-standard residues; d marks the D form. Peptide text beside a SMILES is read from it. Tpi = O=C(O)[C@@H]1Cc2c([nH]c3ccccc23)CN1

Assays:
Assay type in all cases: functional
Rattus norvegicus [1] = assay: The reduction of thrombolytic mass by the compound was calculated at a dose of 7.4 mg/Kg
Rattus norvegicus [2] = assay: The reduction of thrombolytic mass by the compound was calculated at a dose of 7.2 mg/Kg
Rattus norvegicus [3] = assay: The reduction of thrombolytic mass by the compound was calculated at a dose of 8 mg/kg
Rattus norvegicus [4] = assay: The reduction of thrombolytic mass by the compound was calculated at a dose of 5.4 mg/Kg
Rattus norvegicus [5] = assay: The reduction of thrombolytic mass by the compound was calculated at a dose of 5.3 mg/Kg
Rattus norvegicus [6] = assay: The reduction of thrombolytic mass by the compound was calculated at a dose of 6 mg/kg

Question: For `C[C@H](NC(=O)[C@@H]1Cc2c([nH]c3ccccc23)CN1)C(=O)N[C@@H](CCCN=C(N)N)C(=O)N1CCC[C@H]1C(=O)N[C@@H](C)C(=O)N[C@@H](CCCCN)C(=O)O` (H-[Tpi]ARPAK-OH), which Activity (Rattus norvegicus [1]) is on record?
Answer: Its Activity is 16.13 mg.

Question: With `C[C@H](NC(=O)[C@@H]1CCCN1C(=O)[C@H](CCCN=C(N)N)NC(=O)CNC(=O)[C@@H]1Cc2c([nH]c3ccccc23)CN1)C(=O)N[C@@H](CCCCN)C(=O)O` (H-[Tpi]GRPAK-OH) as the compound, how does the Activity (Rattus norvegicus [2]) read?
Answer: The Activity was 19.7 mg.

Question: With `C[C@H](NC(=O)[C@@H]1CCCN1C(=O)[C@H](CCCN=C(N)N)NC(=O)[C@H](CCC(N)=O)NC(=O)[C@@H]1Cc2c([nH]c3ccccc23)CN1)C(=O)N[C@@H](CCCCN)C(=O)O` (H-[Tpi]QRPAK-OH) as the compound, how does the Activity (Rattus norvegicus [3]) read?
Answer: Its Activity is 17.27 mg.

Question: With H-ARPAK-OH as the compound, how does the Activity (Rattus norvegicus [4]) read?
Answer: Its Activity is 18.84 mg.

Question: Which Activity (Rattus norvegicus [5]) does the source give for H-GRPAK-OH here?
Answer: The Activity was 25.9 mg.

Question: How did the Activity (Rattus norvegicus [6]) turn out when H-QRPAK-OH was run?
Answer: The Activity was 21.28 mg.
